Measured values: US20250213555A1, “SUBSTITUTED TETRAHYDROFURAN ANALOGS AS MODULATORS OF SODIUM CHANNELS” (VERTEX PHARMACEUTICALS INCORPORATED, priority 2021, published 2025)

Each compound was assayed against human Nav 1.8 (Homo sapiens, UniProt Q9Y5Y9) (assay: E-VIPR assay detecting and measuring Nav inhibition properties). Conditions: HEK cells expressing a truncated form of human Nav 1.8; compound numbers without "*" (not marked as run in the presence of human serum); read-out: measured IC50 value in the E-VIPR Assay.
Type: cell-based
How it was run: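 Nav inhibition was read by E-VIPR: cells were electrically stimulated while coumarin/oxonol FRET emissions were recorded. Cells were HEK expressing a truncated human Nav 1.8 and co-transduced with KIR2.1, and were assayed in 25% final human serum.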

human Nav 1.8, sequence (Q9Y5Y9 126-399 limits assumed): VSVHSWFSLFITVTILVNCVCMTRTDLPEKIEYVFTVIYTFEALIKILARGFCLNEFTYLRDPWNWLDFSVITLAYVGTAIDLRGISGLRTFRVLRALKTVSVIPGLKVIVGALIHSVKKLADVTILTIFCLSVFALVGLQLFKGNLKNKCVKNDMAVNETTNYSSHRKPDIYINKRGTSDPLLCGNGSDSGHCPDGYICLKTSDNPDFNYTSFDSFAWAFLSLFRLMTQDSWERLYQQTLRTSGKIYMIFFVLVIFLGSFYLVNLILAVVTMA
human Nav 1.8, sequence (Q9Y5Y9 660-890 limits assumed): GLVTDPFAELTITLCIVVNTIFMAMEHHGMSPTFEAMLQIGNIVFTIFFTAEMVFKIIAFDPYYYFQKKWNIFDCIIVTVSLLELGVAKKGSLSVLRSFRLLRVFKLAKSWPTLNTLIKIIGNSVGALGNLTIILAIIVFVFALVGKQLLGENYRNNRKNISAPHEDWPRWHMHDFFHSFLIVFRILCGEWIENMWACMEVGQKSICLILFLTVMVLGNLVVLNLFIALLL
human Nav 1.8, sequence (Q9Y5Y9 1148-1722 limits assumed): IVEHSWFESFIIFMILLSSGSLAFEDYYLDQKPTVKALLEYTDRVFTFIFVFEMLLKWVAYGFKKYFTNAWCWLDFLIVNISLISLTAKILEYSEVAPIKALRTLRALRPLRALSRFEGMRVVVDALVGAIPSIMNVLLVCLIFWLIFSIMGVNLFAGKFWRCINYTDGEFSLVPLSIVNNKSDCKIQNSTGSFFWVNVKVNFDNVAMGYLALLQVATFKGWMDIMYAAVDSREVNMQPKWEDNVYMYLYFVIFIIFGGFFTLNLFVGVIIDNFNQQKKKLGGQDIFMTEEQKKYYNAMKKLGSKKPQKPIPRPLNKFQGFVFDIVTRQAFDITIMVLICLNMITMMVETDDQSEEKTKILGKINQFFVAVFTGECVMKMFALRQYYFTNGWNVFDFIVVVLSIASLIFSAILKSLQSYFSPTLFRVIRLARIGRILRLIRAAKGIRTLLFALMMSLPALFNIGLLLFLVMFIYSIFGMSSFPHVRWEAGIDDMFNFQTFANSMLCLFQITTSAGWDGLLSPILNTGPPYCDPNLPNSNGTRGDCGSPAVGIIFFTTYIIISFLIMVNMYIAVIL

| IC50 [µM] | Compound |
| --- | --- |
| < 0.01 | C[C@H]1[C@@H](c2ccc(F)c(F)c2OCC(=NO)C2(F)CC2)[C@H](C(=O)Nc2ccnc(C(N)=O)c2)O[C@@]1(C)C(F)(F)F [Compound 190, 4-((2R,3S,4S,5R)-3-(3,4-difluoro-2-(2-(1-fluorocyclopropyl)-2-(hydroxyimino)ethoxy)phenyl)-4,5-dimethyl-5-(trifluoromethyl)tetrahydrofuran-2-carboxamido)picolinamide] |
| < 0.01 | C[C@H]1[C@@H](c2ccc(F)c(F)c2OCC(=NO)C2CCC2)[C@H](C(=O)Nc2ccnc(C(N)=O)c2)O[C@@]1(C)C(F)(F)F [Compound 191, 4-((2R,3S,4S,5R)-3-(2-(2-cyclobutyl-2-(hydroxyimino)ethoxy)-3,4-difluorophenyl)-4,5-dimethyl-5-(trifluoromethyl)tetrahydrofuran-2-carboxamido)picolinamide] |
| < 0.01 | CON=C(C)COc1c([C@H]2[C@H](C(=O)Nc3ccnc(C(N)=O)c3)O[C@@](C)(C(F)(F)F)[C@H]2C)ccc(F)c1F [Compound 193, 4-((2R,3S,4S,5R)-3-(3,4-difluoro-2-(2-(methoxyimino)propoxy)phenyl)-4,5-dimethyl-5-(trifluoromethyl)tetrahydrofuran-2-carboxamido)picolinamide] |
| < 0.01 | CC(COc1c([C@H]2[C@H](C(=O)Nc3ccnc(C(N)=O)c3)O[C@@](C)(C(F)(F)F)[C@H]2C)cccc1C(F)(F)F)=NO [Compound 196, 4-((2R,3S,4S,5R)-3-(2-(2-(hydroxyimino)propoxy)-3-(trifluoromethyl)phenyl)-4,5-dimethyl-5-(trifluoromethyl)tetrahydrofuran-2-carboxamido)picolinamide] |
| 0.01 to 0.1 | CC1C(c2ccc(F)c(F)c2OCC2CC(C)(O)C2)C(C(=O)Nc2ccnc(C(N)=O)c2)OC1(C)C(F)(F)F [Compound 199, rel-4-((2R*,3S*,4S*,5R*)-3-(3,4-difluoro-2-(((1r,3S)-3-hydroxy-3-methylcyclobutyl)methoxy)phenyl)-4,5-dimethyl-5-(trifluoromethyl)tetrahydrofuran-2-carboxamido)picolinamide] |
| 0.01 to 0.1 | CNC(=O)c1cc(NC(=O)[C@@H]2O[C@@](C)(C(F)(F)F)[C@@H](C)[C@H]2c2ccc(F)c(F)c2O[C@H]2C[C@@H](O)C2)ccn1 [Compound 201] |
| < 0.01 | C[C@H]1[C@@H](c2ccc(F)c(F)c2O[C@H]2C[C@@H](O)C2)[C@H](C(=O)Nc2ccc(F)c(C(N)=O)c2)O[C@@]1(C)C(F)(F)F [Compound 202] |
| 0.01 to 0.1 | Cc1cnc(C(N)=O)cc1NC(=O)C1OC(C)(C(F)(F)F)C(C)C1c1ccc(F)c(F)c1OC1CC(O)C1 (centres unmarked) [Compound 203] |
| 0.1 to 1 | C[C@H]1[C@@H](c2ccc(F)c(F)c2OC2CC3(CC(O)C3)C2)[C@H](C(=O)Nc2ccnc(C(N)=O)c2)O[C@@]1(C)C(F)(F)F (stereo partly drawn) [Compound 204, 4-((2R,3S,4S,5R)-3-(3,4-difluoro-2-((6-hydroxyspiro[3.3]heptan-2-yl)oxy)phenyl)-4,5-dimethyl-5-(trifluoromethyl)tetrahydrofuran-2-carboxamido)picolinamide] |
| 0.01 to 0.1 | COc1c([C@H]2[C@H](C(=O)Nc3ccnc(C(N)=O)c3)O[C@@](C)(C(F)(F)F)[C@H]2C)ccc(O)c1F [Compound 206, 4-((2R,3S,4S,5R)-3-(3-fluoro-4-hydroxy-2-methoxyphenyl)-4,5-dimethyl-5-(trifluoromethyl)tetrahydrofuran-2-carboxamido) picolinamide] |

| Compound | IC50 [µM] |
| --- | --- |
| C[C@H]1[C@@H](c2ccc(F)c(F)c2OC2CC(=NO)C2)[C@H](C(=O)Nc2ccnc(C(N)=O)c2)O[C@@]1(C)C(F)(F)F (stereo partly drawn) [Compound 192, 4-((2R,3S,4S,5R)-3-(3,4-difluoro-2-(3-(hydroxyimino)cyclobutoxy)phenyl)-4,5-dimethyl-5-(trifluoromethyl)tetrahydrofuran-2-carboxamido)picolinamide] | < 0.01 |
